# Patent publication US6864051B1, “Plant gene constructs and their use” (priority 1997, dated 2005)
# Key:
# 35S::ATH1 Arabidopsis = assay: Rescue of 35S::ATH1 Arabidopsis seeds/seedlings on growth medium containing GA3; format: in vivo, Arabidopsis thaliana; conditions: growth medium containing 10^-5 M GA3 for three days
# From the text: In order to gain more insight into the role of ATH1 in plant development, the full length ATH1 cDNA was fused to the constitutive 35S promoter of cauliflower mosaic virus and the 35S::ATH1 chimeric gene was transformed into Arabidopsis via the vacuum infiltration method. Six independent primary transformants could be obtained and all transgenic lines were selfed. From each independent transgenic line 40 individual seeds were germinated and scored for altered phenotypes compared to wild type plants. […] Once rescued and transferred to soil plants developed normally, except for a late flowering phenotype. Under short day conditions transgenic plants form much more rosette leaves (vegetative leaves) than wild type plants (about 40 rosette leaves and 100 days after germination, and plants are still not flowering, compared to about 30 rosette leaves in wild-type plants until flowering). Under LD conditions in most of these plants a partial generative to vegetative reversion occurs, shown by the formation of aerial rosettes (vegetative leaves) on the inflorescence stem. Plants (C24 ecotype) containing an extra copy of the ATH1 cDNA under control of the Hsp18.2 heat shock promoter (HspHlB plants) also show a late-flowering phenotype. […]
# [1] = system: tobacco plants overexpressing ATH1; assay: Foliar application (spraying) of GA3 to tobacco plants overexpressing ATH1; format: in vivo, Nicotiana tabacum; conditions: 35S::ATH1 tobacco; for late-flowering phenotype of ATH1 overexpressing tobacco after GA spraying: foliar GA3 spraying, data not shown
# Description: Tobacco plants (Nicotiana tabacum L. cv. Samsun NN) were transformed using the leaf disk procedure (Horsch et al., 1985). Transgenic plants were selected on MS-medium (Murashige and Skoog, 1962) containing […] kanamycin and 2% sucrose. After transfer to soil plants were grown in a greenhouse at 22° C. under a light regime of 16 hours daylight when necessary supplemented with artificial light. The effects of gibberellin (GA) were tested by foliar applications (spraying) of 100 mM GA3 in a solution containing 100 ml/l of Triton X-100. Control plants were sprayed with a solution containing only 100 ml/l of Triton X-100. Spraying began 60 days after sowing when the wild-type plants were approximately 5 cm tall and the 35S CaMV::ATH1 plants approximately 2.5 cm tall, and continued at 3- to 4-day intervals. Plant height was measured every 3 to 4 days and this will be continued until the onset of flowering, as determined by the appearance of flower primordia.
compound,measurement,setting,value
"C=C1C[C@]23C[C@@]1(O)CC[C@H]2[C@@]12C=C[C@H](O)[C@@](C)(C(=O)O1)[C@H]2[C@@H]3C(=O)O [GA3, gibberellin A3]",poor germination and arrest in seedling stage of 35S::ATH1 Arabidopsis,35S::ATH1 Arabidopsis,could be overcome
same,late-flowering phenotype of ATH1 overexpressing tobacco after GA spraying,[1],holds also true
same,late-flowering phenotype of ATH1 overexpressing tobacco after GA spraying,[1]; listed as GA,rescue
same,stem length (plant height) of ATH1 overexpressing tobacco after GA3,[1]; spraying of 100 mM GA3 at three to four day intervals,complete restoration of the wild-type stem length
